# US8236808B2, “Pyrazine derivatives as ENAC blockers” (Novartis AG, priority 2008, dated 2012)
# Where a name gives a salt, the structure may show the parent alone.
# Target: T1, epithelial sodium channel (ENaC) (Homo sapiens, UniProt P37088+P51168+P51170)
# T1 construct: host or cells: primary human bronchial epithelial cells (HBECs), differentiated at the air-liquid interface
# T1 sequence (P37088 1-669): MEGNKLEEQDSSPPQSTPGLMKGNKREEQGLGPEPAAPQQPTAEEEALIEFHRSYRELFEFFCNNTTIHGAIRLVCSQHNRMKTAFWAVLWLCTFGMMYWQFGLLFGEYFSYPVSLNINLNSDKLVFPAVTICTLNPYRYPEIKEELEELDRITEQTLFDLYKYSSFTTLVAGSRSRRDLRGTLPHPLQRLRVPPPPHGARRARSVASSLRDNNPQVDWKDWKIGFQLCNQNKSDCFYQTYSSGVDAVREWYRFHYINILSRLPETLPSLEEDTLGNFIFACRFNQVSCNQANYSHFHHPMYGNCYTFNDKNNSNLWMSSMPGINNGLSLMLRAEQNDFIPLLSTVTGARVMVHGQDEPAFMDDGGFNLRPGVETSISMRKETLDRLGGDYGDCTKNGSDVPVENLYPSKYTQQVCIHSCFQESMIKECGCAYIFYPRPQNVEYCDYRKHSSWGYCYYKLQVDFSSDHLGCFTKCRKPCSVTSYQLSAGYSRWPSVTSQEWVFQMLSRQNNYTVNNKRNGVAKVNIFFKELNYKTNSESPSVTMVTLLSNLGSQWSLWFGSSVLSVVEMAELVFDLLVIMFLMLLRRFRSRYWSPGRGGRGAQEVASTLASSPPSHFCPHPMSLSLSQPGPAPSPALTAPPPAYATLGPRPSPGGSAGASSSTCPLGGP
# T1 sequence (P51168 1-640): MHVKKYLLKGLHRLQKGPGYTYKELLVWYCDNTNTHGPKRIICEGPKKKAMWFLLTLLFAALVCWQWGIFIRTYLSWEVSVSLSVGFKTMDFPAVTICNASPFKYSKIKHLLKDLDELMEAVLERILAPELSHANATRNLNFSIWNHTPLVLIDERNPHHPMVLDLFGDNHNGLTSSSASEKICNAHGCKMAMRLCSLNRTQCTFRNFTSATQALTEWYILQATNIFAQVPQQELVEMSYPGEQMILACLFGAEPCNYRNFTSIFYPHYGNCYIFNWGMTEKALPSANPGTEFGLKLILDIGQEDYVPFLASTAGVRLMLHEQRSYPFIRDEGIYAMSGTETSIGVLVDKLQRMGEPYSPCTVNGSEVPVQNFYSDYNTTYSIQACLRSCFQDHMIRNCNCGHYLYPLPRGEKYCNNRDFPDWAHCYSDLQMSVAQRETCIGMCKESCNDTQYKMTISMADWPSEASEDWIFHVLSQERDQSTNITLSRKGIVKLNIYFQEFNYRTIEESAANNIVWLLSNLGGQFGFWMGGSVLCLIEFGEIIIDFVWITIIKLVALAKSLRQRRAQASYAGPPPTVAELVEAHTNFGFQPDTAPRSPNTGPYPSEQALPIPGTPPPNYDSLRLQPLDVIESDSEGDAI
# T1 sequence (P51170 1-649): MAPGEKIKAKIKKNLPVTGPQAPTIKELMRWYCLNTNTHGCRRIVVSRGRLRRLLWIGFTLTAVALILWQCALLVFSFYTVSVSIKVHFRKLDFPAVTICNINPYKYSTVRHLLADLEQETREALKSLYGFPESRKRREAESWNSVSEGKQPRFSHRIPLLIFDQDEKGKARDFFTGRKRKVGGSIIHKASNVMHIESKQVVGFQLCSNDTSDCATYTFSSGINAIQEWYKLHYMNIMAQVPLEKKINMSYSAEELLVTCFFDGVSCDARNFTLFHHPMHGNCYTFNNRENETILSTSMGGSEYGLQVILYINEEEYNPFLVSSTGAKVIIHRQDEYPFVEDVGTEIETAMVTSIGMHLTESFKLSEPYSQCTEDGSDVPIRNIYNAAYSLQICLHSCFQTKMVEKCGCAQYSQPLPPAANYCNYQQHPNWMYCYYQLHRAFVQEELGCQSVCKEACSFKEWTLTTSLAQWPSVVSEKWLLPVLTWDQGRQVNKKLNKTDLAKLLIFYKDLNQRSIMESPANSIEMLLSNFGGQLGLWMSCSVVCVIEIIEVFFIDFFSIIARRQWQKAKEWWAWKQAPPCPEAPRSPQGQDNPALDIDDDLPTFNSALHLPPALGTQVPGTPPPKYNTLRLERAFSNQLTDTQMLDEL
# Assay: Short circuit current (ISC) measurements in human bronchial epithelial cells, inhibition of amiloride-sensitive ISC
# Assay type: cell-based
# Settings: inhibition of the amiloride-sensitive ISC; HBECs cultured at air-liquid interface, Ussing chamber, compound added to apical chamber
# Experimental: Compounds of formula (I), hereinafter referred to alternatively as “agents of the invention”, are useful as pharmaceuticals. In particular, the compounds have good ENaC blocker activity and may be tested in the following assays.
# Human Bronchial Epithelial cells (HBECs) (Cambrex) were cultured under air-liquid interface conditions to provide a well differentiated mucociliary phenotype.
# HBECs were cultured using a modification of the method described by Gray and colleagues (Gray et al., 1996). Cells were seeded in plastic T-162 flasks and were grown in bronchial epithelial cell growth medium (BEGM; Cambrex) supplemented with bovine pituitary extract (52 μg/mL), hydrocortisone (0.5 μg/mL), human recombinant epidermal growth factor (0.5 ng/mL), epinephrine (0.5 μg/mL), transferrin (10 μg/mL), insulin (5 μg/mL), retinoic acid (0.1 μg/mL), triiodothyronine ([…]), gentamycin (50 μg/mL) and amphotericin B (50 ng/mL). Medium was changed every 48 hours until cells were 90% confluent. Cells were then passaged and seeded (8.25×10^5 cells/insert) on polycarbonate Snapwell inserts (Costar) in differentiation media containing 50% DMEM in BEGM with the same supplements as above but without triiodothyronine and a final retinoic acid concentration of 50 nM (all-trans retinoic acid). Cells were maintained submerged for the first 7 days in culture, after which time they were exposed to an apical air interface for the remainder of the culture period. At this time, media was changed to DMEM:F12 media containing 2% v/v Ultroser G for the remainder of culture. Amphotericin B was removed from all media 3 feeds prior to use in the Ussing Chambers. Cells were used between days 7 and 21 after establishment of the apical-air interface. At all stages of culture, cells were maintained at 37° C. in 5% CO2 in an air incubator.
# Snapwell inserts were mounted in Vertical Diffusion Chambers (Costar) and were bathed with continuously gassed Ringer solution (5% CO2 in O2; pH 7.4) maintained at 37° C. containing (in mM): 120 NaCl, 25 NaHCO3, 3.3 KH2PO4, 0.8 K2HPO4, 1.2 CaCl2, 1.2 MgCl2, and 10 glucose. The solution osmolarity was between 280 and 300 mOsmol/kg H2O for all physiological salt solutions used. Cells were voltage clamped to 0 mV (model EVC4000; WPI). RT was measured by applying a 1- or 2-mV pulse at 30-s intervals and calculating RT by Ohm's law. Data were recorded using a PowerLab workstation (ADInstruments).
# Test compounds were prepared as a 10 mM stock solution in DMSO (95%). Serial 3-fold dilutions were freshly prepared in an appropriate vehicle (distilled H2O or Ringers solution). The initial concentration was added to the apical chamber as a 1000× concentrate in 5 μL, resulting in a final 1× concentration the 5 mL volume of the Ussing chamber. Subsequent additions of compound were added in a 3.3 μL volume of the 1000× serially diluted stock solution. At the completion of the concentration-response experiment, amiloride (10 μM) was added into the apical chamber to enable the total amiloride-sensitive current to be measured. An amiloride control IC50 was established at the start of each experiment.
# Results are expressed as the mean % inhibition of the amiloride-sensitive ISC. Concentration-response curves were plotted and IC50 values generated using GraphPad Prism 3.02. Cell inserts were typically run in duplicate and the IC50 calculated on the mean % inhibition data.
row,SMILES,IC50 [nM]
1,"C[N+](C)(CCCCCNS(=O)(=O)c1ccc(Cl)cc1)CCNC(=O)c1nc(Cl)c(N)nc1N [Example 94, [5-(4-Chloro-benzenesulfonylamino)-pentyl]-{2-[(3,5-diamino-6-chloro-pyrazine-2-carbonyl)-amino]-ethyl}-dimethyl-ammonium bromide]",250
2,"C[N+](C)(CCCCNS(=O)(=O)c1ccc(Cl)cc1)CCNC(=O)c1nc(Cl)c(N)nc1N [Example 100, [4-(4-Chloro-benzenesulfonylamino)-butyl]-{2-[(3,5-diamino-6-chloro-pyrazine-2-carbonyl)-amino]-ethyl}-dimethyl-ammonium bromide]",290
3,"C[N+](C)(CCNC(=O)c1nc(Cl)c(N)nc1N)CCNS(=O)(=O)Cc1ccc(Cl)cc1 [Example 108, [2-(4-Chloro-phenylmethanesulfonylamino)-ethyl]-{2-[(3,5-diamino-6-chloro-pyrazine-2-carbonyl)-amino]-ethyl}-dimethyl-ammonium bromide]",540
4,"C[N+](CCCc1ccc(O)cc1)(CCCc1ccc(O)cc1)CCNC(=O)c1nc(Cl)c(N)nc1N [Example 122, {2-[(3,5-Diamino-6-chloro-pyrazine-2-carbonyl)-amino]-ethyl}-bis-[3-(4-hydroxy-phenyl)-propyl]-methyl-ammonium trifluoroacetate]",130
5,"C[N+](CCCc1ccc(OCC(O)CO)cc1)(CCCc1ccc(OCC(O)CO)cc1)CCNC(=O)c1nc(Cl)c(N)nc1N (centres unmarked) [Example 125, {2-[(3,5-Diamino-6-chloro-pyrazine-2-carbonyl)-amino]-ethyl}-bis-{3-[4-(2,3-dihydroxy-propoxy)-phenyl]-propyl}-methyl-ammonium trifluoroacetate]",240
6,"C[N+](C)(CCCc1ccc(OCC(O)CO)cc1)CCNC(=O)c1nc(Cl)c(N)nc1N (centres unmarked) [Example 126, {2-[(3,5-Diamino-6-chloro-pyrazine-2-carbonyl)-amino]-ethyl}-{3-[4-(2,3-dihydroxy-propoxy)-phenyl]-propyl-dimethyl-ammonium trifluoroacetate]",2270
7,"C[N+](C)(CCNC(=O)c1nc(Cl)c(N)nc1N)CCc1ccccc1 [Example 129, {2-[(3,5-Diamino-6-chloro-pyrazine-2-carbonyl)-amino]-ethyl}-dimethyl-phenethyl-ammonium trifluoroacetate]",1140
8,"C[N+](C)(C)CCNC(=O)c1nc(Cl)c(N)nc1N [Example 130, {2-[(3,5-Diamino-6-chloro-pyrazine-2-carbonyl)-amino]-ethyl}-trimethyl-ammonium iodide]",5810
9,"COC(=O)COc1ccc(CCC[N+](C)(C)CCNC(=O)c2nc(Cl)c(N)nc2N)cc1 [Example 132, {2-[(3,5-Diamino-6-chloro-pyrazine-2-carbonyl)-amino]-ethyl}-[3-(4-methoxycarbonylmethoxy-phenyl)-propyl]-dimethyl-ammonium trifluoroacetate]",1490
10,"C[N+](C)(CCCc1ccc(OCC(=O)O)cc1)CCNC(=O)c1nc(Cl)c(N)nc1N [Example 133, [3-(4-Carboxymethoxy-phenyl)-propyl]-{2-[(3,5-diamino-6-chloro-pyrazine-2-carbonyl)-amino]-ethyl}-dimethyl-ammonium trifluoroacetate]",6520

# Stronger by IC50, values ahead:
row,IC50 [nM],SMILES
1,62,"C[N+](C)(CCCCCNC(=O)Cc1ccc(OCc2ccccc2)cc1)CCNC(=O)c1nc(Cl)c(N)nc1N [Example 78, {5-[2-(4-Benzyloxy-phenyl)-acetylamino]-pentyl}-{2-[(3,5-diamino-6-chloro-pyrazine-2-carbonyl)-amino]-ethyl}-dimethyl-ammonium bromide]"
2,25,"CCC[C@@H](CNC(=O)c1nc(Cl)c(N)nc1N)[N+](C)(C)CCCc1ccc(OC[C@@H](O)CO)cc1 [Example 124, ((S)-1-{[(3,5-Diamino-6-chloro-pyrazine-2-carbonyl)-amino]-methyl}-butyl)-{3-[4-((S)-2,3-dihydroxy-propoxy)-phenyl]-propyl}-dimethyl-ammonium trifluoroacetate]"
3,10,"CCC[C@@H](CNC(=O)c1nc(Cl)c(N)nc1N)[N+](C)(C)CCCc1ccc(O)cc1 [Example 121, ((S)-1-{[(3,5-Diamino-6-chloro-pyrazine-2-carbonyl)-amino]-methyl}-butyl)-[3-(4-hydroxy-phenyl)-propyl]-dimethyl-ammonium trifluoroacetate]"
4,4,"CCC[C@@H](CNC(=O)c1nc(Cl)c(N)nc1N)[N+](C)(C)CCCc1ccc(OC)cc1 [Example 120, ((S)-1-{[(3,5-Diamino-6-chloro-pyrazine-2-carbonyl)-amino]-methyl}-butyl)-[3-(4-methoxy-phenyl)-propyl]-dimethyl-ammonium trifluoroacetate]"
